Results: ChEMBL document CHEMBL1137551, “Estrogen receptor dependent inhibitors of NF-kappaB transcriptional activation-1 synthesis and biological evaluation of substituted 2-cyanopropanoic acid derivatives: pathway selective inhibitors of NF-kappaB, a potential treatment for rheumatoid arthritis” (J Med Chem, 2007)
pEC50, pIC50: −log10 of the molar value. Activity calls are given as the source filed them. No cut-off for these calls is given here.

Key:
HAECT1 [1] = assay: Inhibition of ER dependent NF-kappaB expression in ER expressing HAECT1 cells at 10 uM by luciferase reporter gene assay relative to E2; assay type: cell-based; conditions: Homo sapiens
HAECT1 [2] = assay: Inhibition of ER dependent IL6 expression in ER expressing HAECT1 cells at 10 uM relative to E2; assay type: cell-based; conditions: Homo sapiens
[3] = Inhibition of ER dependent IL6 expression in ER expressing HAECT1 cells; assay type: cell-based; conditions: Homo sapiens
HAECT1 [4] = assay: (§1) Inhibition of ER dependent creatine kinase expression in ER expressing HAECT1 cells; assay type: cell-based; conditions: Homo sapiens
[5] = (§2) Inhibition of ER dependent NF-kappaB expression in ER expressing HAECT1 cells by luciferase reporter gene assay; assay type: cell-based; conditions: Homo sapiens
Mus musculus [6] = assay: Inhibition of NFkB mediated TNFalpha gene expression in C57BL/6 mouse at 5 mg/kg/day, po after 5 weeks; assay type: functional; conditions: C57BL/6, 840 h
Mus musculus [7] = assay: Inhibition of NFkB mediated MHC gene expression in C57BL/6 mouse at 5 mg/kg/day, po after 5 weeks; assay type: functional; conditions: C57BL/6, 840 h
Mus musculus [8] = assay: Inhibition of NFkB mediated VCAM gene expression in C57BL/6 mouse at 5 mg/kg/day, po after 5 weeks; assay type: functional; conditions: C57BL/6, 840 h
Mus musculus [9] = assay: Inhibition of NFkB mediated RANTES gene expression in C57BL/6 mouse at 5 mg/kg/day, po after 5 weeks; assay type: functional; conditions: C57BL/6, 840 h
Mus musculus [10] = assay: Increase in uterine wet weight in C57BL/6 mouse at 5 mg/kg/day, po after 5 days relative to control; assay type: functional
Plasma [11] = assay: Stability in mouse plasma assessed as hydrolysis after 24 hr at 37 deg C; assay type: ADME, cell-free; parameters: scale not given: the % may be the effect or the level left
Plasma [12] = assay: Stability in mouse plasma assessed as hydrolysis after 4 hr at 37 deg C; assay type: ADME, cell-free; parameters: scale not given: the % may be the effect or the level left
HAECT1 [13] = assay: Inhibition of ER dependent creatine kinase expression in ER expressing HAECT1 cells at 10 uM relative to E2; assay type: cell-based; conditions: Homo sapiens
[14] = as §1; assay type: cell-based; conditions: Homo sapiens
HAECT1 [15] = assay: as §2; assay type: cell-based; conditions: Homo sapiens
HAECT1 [16] = assay: Inhibition of ER dependent NF-kappaB expression in ER expressing HAECT1 cells at 1 uM by luciferase reporter gene assay; assay type: cell-based; conditions: Homo sapiens
Estrogen receptor = molecular target: T1, Estrogen receptor (Homo sapiens, UniProt P03372); assay: Displacement of [3H]E2 from human ERalpha ligand binding domain
T1 sequence (P03372 whole entry): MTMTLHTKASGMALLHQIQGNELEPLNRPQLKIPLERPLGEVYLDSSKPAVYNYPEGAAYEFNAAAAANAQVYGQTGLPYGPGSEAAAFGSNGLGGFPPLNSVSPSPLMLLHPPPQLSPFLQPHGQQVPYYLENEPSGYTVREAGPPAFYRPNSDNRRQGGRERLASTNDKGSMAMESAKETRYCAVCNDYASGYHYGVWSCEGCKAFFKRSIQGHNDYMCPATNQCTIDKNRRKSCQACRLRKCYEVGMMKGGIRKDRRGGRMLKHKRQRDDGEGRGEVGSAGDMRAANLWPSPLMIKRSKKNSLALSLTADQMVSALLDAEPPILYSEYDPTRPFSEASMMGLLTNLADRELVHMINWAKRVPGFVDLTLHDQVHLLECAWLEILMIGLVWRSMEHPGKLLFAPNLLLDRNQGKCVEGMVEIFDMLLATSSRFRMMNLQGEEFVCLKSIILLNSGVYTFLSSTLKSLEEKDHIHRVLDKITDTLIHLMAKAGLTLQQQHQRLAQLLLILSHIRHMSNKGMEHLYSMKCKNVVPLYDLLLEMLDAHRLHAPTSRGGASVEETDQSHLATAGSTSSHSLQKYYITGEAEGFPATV

Mus musculus [17] = assay: Inhibition of NFkB mediated VCAM gene expression in C57BL/6 mouse at 5 mg/kg/day, po after 5 weeks relative to 17-alpha-ethinyl-17beta-estradiol; assay type: functional; parameters: scale not given: the % may be the effect or the level left
Estrogen receptor beta = Estrogen receptor beta (Homo sapiens, UniProt Q92731); assay: Displacement of [3H]E2 from human ERbeta ligand binding domain
Rattus norvegicus [18] = assay: Inhibition of adjuvant-induced arthritis in Lewis rat assessed as improvement in synovial scoring at 0.3 mg/kg/day, po; assay type: functional; parameters: scale not given: the % may be the effect or the level left
Rattus norvegicus [19] = assay: Inhibition of 17-alpha-ethinyl-17beta-estradiol induced uterine wet weight in Sprague-Dawley rat at 2 mg/kg/day; assay type: functional, organism-based
Mus musculus [20] = assay: Inhibition of NFkB mediated MHC gene expression in C57BL/6 mouse at 5 mg/kg/day, po after 5 weeks relative to 17-alpha-ethinyl-17beta-estradiol; assay type: functional; parameters: scale not given: the % may be the effect or the level left
Rattus norvegicus [21] = assay: Stimulation of uterine wet weight in Sprague-Dawley rat at 2 mg/kg/day; assay type: functional, organism-based
Mus musculus [22] = assay: Inhibition of NFkB mediated RANTES gene expression in C57BL/6 mouse at 5 mg/kg/day, po after 5 weeks relative to 17-alpha-ethinyl-17beta-estradiol; assay type: functional; parameters: scale not given: the % may be the effect or the level left
Mus musculus [23] = assay: Inhibition of NFkB mediated TNFalpha gene expression in C57BL/6 mouse at 5 mg/kg/day, po after 5 weeks relative to 17-alpha-ethinyl-17beta-estradiol; assay type: functional; parameters: scale not given: the % may be the effect or the level left

Chain of Estrogen receptor beta (Q92731 whole entry, the tested form may be a part): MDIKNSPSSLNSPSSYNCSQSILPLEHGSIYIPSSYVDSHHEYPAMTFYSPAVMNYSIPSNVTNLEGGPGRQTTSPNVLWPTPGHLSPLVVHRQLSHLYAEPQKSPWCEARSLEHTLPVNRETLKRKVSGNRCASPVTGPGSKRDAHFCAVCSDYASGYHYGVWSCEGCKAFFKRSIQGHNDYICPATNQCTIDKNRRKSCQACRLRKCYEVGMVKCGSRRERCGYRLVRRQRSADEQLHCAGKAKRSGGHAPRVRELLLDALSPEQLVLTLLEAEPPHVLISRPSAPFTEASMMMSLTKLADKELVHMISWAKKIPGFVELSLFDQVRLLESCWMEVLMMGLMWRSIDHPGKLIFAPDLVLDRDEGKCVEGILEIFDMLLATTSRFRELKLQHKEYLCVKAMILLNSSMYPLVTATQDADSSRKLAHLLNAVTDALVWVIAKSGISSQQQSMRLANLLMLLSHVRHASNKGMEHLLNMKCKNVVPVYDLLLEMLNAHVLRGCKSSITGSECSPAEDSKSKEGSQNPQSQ

Row | SMILES | Efficacy (HAECT1 [1]) | Activity (HAECT1 [4]) | pIC50 [5] | Efficacy (HAECT1 [13]) | pEC50 [14] | other results
1 | CCOC(=O)C(C#N)C(c1cccc2ccccc12)c1cccc2ccccc12 (configuration not stated) | 96% | inactive | 6.26 |  |  | Efficacy (HAECT1 [2]): 91%; pIC50 [3]: 6.73
2 | C#C[C@]1(O)CC[C@H]2[C@@H]3CCc4cc(O)ccc4[C@H]3CC[C@@]21C [ETHINYL ESTRADIOL] |  |  |  |  |  | inhibition in vivo at 5 mg/kg/day (Mus musculus [6]): 60%; inhibition in vivo at 5 mg/kg/day (Mus musculus [7]): 64%; inhibition in vivo at 5 mg/kg/day (Mus musculus [8]): 58%; inhibition in vivo at 5 mg/kg/day (Mus musculus [9]): 58%; Fold change (Mus musculus [10]): 4
3 | COc1ccccc1C(c1cccc2ccccc12)C(C)(C#N)C(=O)OC(C)(C)C (configuration not stated) | 94% |  | 6.92 | 24% | 7.42 | Stability (Plasma [11]): 0%; Stability (Plasma [12]): 32%
4 | CCOC(=O)C(C#N)C(c1ccc(OC)cc1OC)c1cccc2ccccc12 (configuration not stated) |  | inactive |  |  |  | Activity (HAECT1 [15]): inactive
5 | CCOC(=O)C(C)(C#N)C(c1ccccc1[N+](=O)[O-])c1cccc2ccccc12 (configuration not stated) | 112% | inactive | 6.57 |  |  | 
6 | N#CC(C(=O)O)C(c1cccc2ccccc12)c1cccc2ccccc12 (configuration not stated) |  | inactive |  |  |  | Activity (HAECT1 [15]): inactive
7 | CCOC(=O)C(C#N)C(c1ccccc1F)c1cccc2ccccc12 (configuration not stated) | 32% |  |  |  |  | inhibition (HAECT1 [16]): 19%
8 | COc1ccccc1[C@H](c1cccc2ccccc12)[C@@](C)(C#N)C(=O)N1CCCCC1 | 92% |  | 6.90 | 37% | 6.59 | 
9 | CCOC(=O)C(C#N)C(c1ccccc1C(F)(F)F)c1cccc2ccccc12 (configuration not stated) | 106% |  | 6.96 | 24% | 6.62 | 
10 | CCOC(=O)C(C#N)C(c1ccc2ccccc2c1)c1cccc2ccccc12 (configuration not stated) | 76% | inactive | 6.41 |  |  | 
11 | CCOC(=O)C(C)(C#N)C(c1ccccc1OC)c1cccc2ccccc12 (configuration not stated) | 110% |  | 6.98 | 33% | 7.01 | 
12 | CCOC(=O)C(C#N)C(c1ccccc1)c1cccc2ccccc12 (configuration not stated) | 96% | inactive | 6.10 |  |  | 
13 | CCOC(=O)C(C)(C#N)C(c1cccc2ccccc12)c1cccc2ccccc12 (configuration not stated) | 96% | inactive | 6.69 |  |  | 
14 | CCOC(=O)C(C#N)C(c1cccc2ccccc12)c1ccnc2ccccc12 (configuration not stated) | 4% |  |  |  |  | inhibition (HAECT1 [16]): 3%
15 | CCOC(=O)C(C#N)C(c1cccc(OC)c1)c1cccc2ccccc12 (configuration not stated) |  | inactive |  |  |  | Activity (HAECT1 [15]): inactive
16 | CCOC(=O)C(C#N)C(c1ccccc1OC)c1cccc2ccccc12 (configuration not stated) | 90% |  | 6.86 | 32% | 6.63 | 
17 | COc1ccccc1[C@H](c1cccc2ccccc12)[C@@](C)(C#N)C(=O)N1CCC(c2cccc(C(F)(F)F)c2)CC1 | 94% | inactive | 6.91 |  |  | pIC50 (Estrogen receptor): 5.61; inhibition in vivo at 5 mg/kg/day (Mus musculus [6]): 59%; inhibition in vivo at 5 mg/kg/day (Mus musculus [7]): 42%; Activity (Mus musculus [17]): 94%; inhibition in vivo at 5 mg/kg/day (Mus musculus [8]): 48%; inhibition in vivo at 5 mg/kg/day (Mus musculus [9]): 50%; Fold change (Mus musculus [10]): 1; pIC50 (Estrogen receptor beta): 5.82; Activity (Rattus norvegicus [18]): 50%; Activity (Rattus norvegicus [19]): inactive; Activity (Mus musculus [20]): 86%; Activity (Rattus norvegicus [21]): inactive; Activity (Mus musculus [22]): 65%; Activity (Mus musculus [23]): 83%
18 | CCOC(=O)C(C#N)C(c1ccccc1SC)c1cccc2ccccc12 (configuration not stated) | 102% |  | 6.93 | 24% | 6.71 | 
19 | COc1ccccc1[C@H](c1cccc2ccccc12)[C@@](C)(C#N)C(=O)N1CCN(c2cccc(Cl)c2C)CC1 | 99% |  | 7.64 | 41% | 7.08 | inhibition in vivo at 5 mg/kg/day (Mus musculus [6]): 58%; inhibition in vivo at 5 mg/kg/day (Mus musculus [7]): 20%; Activity (Mus musculus [17]): 47%; inhibition in vivo at 5 mg/kg/day (Mus musculus [8]): 24%; inhibition in vivo at 5 mg/kg/day (Mus musculus [9]): 35%; Fold change (Mus musculus [10]): 1.1; Activity (Mus musculus [20]): 41%; Activity (Mus musculus [22]): 45%; Activity (Mus musculus [23]): 82%
20 | CCOC(=O)C(C#N)C(c1ccc(C)cc1)c1cccc2ccccc12 (configuration not stated) | 64% | inactive | 6.26 |  |  | 
21 | CCOC(=O)C(C)(C#N)C(c1ccccc1SC)c1cccc2ccccc12 (configuration not stated) | 65% | inactive | 6.49 |  |  | 
22 | N#CC(C(N)=O)C(c1cccc2ccccc12)c1cccc2ccccc12 (configuration not stated) | 55% | inactive | 5.72 |  |  | 
